According to ChEMBL document CHEMBL5055669, “Development of Potent and Selective Agonists for Complement C5a Receptor 1 with In Vivo Activity” (J Med Chem, 2021):
Activity calls are given as the source filed them. The rule behind the calls is not given here. Square brackets hold non-standard residues; d marks the D form. Peptide text beside a SMILES is read from it. Nva = CCC[C@H](N)C(=O)O

Key:
[1] = biological target: T1, C3a anaphylatoxin chemotactic receptor (Homo sapiens, UniProt Q16581); assay: Agonist activity at human C3aR expressed in CHO cells assessed as induction of ERK1/2 phosphorylation at Thr202/Tyr204 residues incubated for 10 mins by AlphaLISA assay; type: functional, cell-based
T1 sequence (Q16581 whole entry): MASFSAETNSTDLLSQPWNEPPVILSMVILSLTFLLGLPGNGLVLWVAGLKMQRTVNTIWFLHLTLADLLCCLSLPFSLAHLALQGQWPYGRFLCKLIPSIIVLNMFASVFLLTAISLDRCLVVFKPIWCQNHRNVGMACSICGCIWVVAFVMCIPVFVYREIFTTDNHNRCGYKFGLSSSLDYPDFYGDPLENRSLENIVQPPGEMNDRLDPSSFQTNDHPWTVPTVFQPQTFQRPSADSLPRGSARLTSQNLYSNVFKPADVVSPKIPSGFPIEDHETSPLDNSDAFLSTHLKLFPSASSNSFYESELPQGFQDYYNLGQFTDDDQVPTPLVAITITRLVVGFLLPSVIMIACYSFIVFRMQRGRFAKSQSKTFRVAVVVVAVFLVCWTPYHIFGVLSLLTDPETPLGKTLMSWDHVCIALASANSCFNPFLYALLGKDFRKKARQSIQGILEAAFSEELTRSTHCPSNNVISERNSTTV

[2] = biological target: T2, C5a anaphylatoxin chemotactic receptor 1 (Homo sapiens, UniProt P21730); assay: Agonist activity at human C5aR1 expressed in CHO cells assessed as induction of ERK1/2 phosphorylation at Thr202/Tyr204 residues incubated for 10 mins by AlphaLISA assay; type: functional, cell-based
T2 sequence (P21730 whole entry): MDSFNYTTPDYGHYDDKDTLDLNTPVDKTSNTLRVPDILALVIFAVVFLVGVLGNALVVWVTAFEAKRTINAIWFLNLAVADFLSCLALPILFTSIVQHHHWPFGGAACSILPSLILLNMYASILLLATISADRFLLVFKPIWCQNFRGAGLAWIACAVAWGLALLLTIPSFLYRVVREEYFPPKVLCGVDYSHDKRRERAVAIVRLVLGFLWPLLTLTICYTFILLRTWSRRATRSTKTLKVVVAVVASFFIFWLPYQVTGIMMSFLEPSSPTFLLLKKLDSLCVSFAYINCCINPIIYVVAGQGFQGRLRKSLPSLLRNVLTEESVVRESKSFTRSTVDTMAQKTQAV

[3] = species on record: Homo sapiens; assay: Selectivity ratio of EC50 for agonist activity at human C3aR expressed in CHO cells to EC50 for agonist activity at human C5aR1 expressed in CHO cells; type: cell-based
[4] = biological target: T3, C5a anaphylatoxin chemotactic receptor 1 (Mus musculus, UniProt P30993); assay: Agonist activity at C5aR1 in mouse RAW264.7 cells assessed as induction of ERK1/2 phosphorylation at Thr202/Tyr204 residues incubated for 10 mins by AlphaLISA assay; type: functional, cell-based
T3 sequence (P30993 whole entry): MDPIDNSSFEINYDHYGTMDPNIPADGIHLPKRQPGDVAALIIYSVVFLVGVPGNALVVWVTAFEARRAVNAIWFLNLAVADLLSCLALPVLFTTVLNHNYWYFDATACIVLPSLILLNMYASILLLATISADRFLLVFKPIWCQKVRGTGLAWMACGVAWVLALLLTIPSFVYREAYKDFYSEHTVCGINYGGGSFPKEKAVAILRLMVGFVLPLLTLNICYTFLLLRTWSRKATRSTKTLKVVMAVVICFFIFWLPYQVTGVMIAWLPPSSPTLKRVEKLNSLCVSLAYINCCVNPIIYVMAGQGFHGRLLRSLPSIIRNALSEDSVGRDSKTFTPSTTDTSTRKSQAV

[5] = biological target: T4, C5a anaphylatoxin chemotactic receptor 1 (Mus musculus) (UniProt P30993); assay: Agonist activity at C5aR1 in mouse RAW264.7 cells assessed as induction of ERK1/2 phosphorylation at Thr202/Tyr204 residues at up to 100 uM incubated for 10 mins in presence of JPE1375 by AlphaLISA assay; type: functional, cell-based
T4 sequence (whole entry): T3 sequence (P30993 whole entry)

Row | Compound | EC50 ([1]; read-out: pEC50 (converted)) [nM] | EC50 [2] [nM] | Ratio EC50 [3] | EC50 ([1]; read-out: EC50) [nM] | EC50 [4] [µM] | Activity [5]
1 | CC(C)C[C@H](NC(=O)[C@H](C)NC(=O)[C@H](CC(C)C)NC(=O)[C@@H]1CCCN1C(=O)[C@H](CCCCN)NC(=O)[C@@H](N)Cc1ccccc1)C(=O)N[C@H](C)C(=O)N[C@@H](CCCNC(=N)N)C(=O)O | 435 | 4.35 | 109 |  |  | 
2 | CCC[C@H](NC(=O)[C@H](C)NC(=O)[C@H](CC(C)C)NC(=O)[C@@H]1CCCN1C(=O)[C@H](CCCCN)NC(=O)[C@H](Cc1ccccc1)NC(C)=O)C(=O)N[C@@H](C)C(=O)N[C@@H](CCCNC(=N)N)C(=O)O (Ac-FKPLA[Nva]AR-OH) | 752 |  |  |  |  | 
3 | CC(=O)N[C@@H](Cc1ccccc1)C(=O)N[C@H]1CCCCNC(=O)[C@H](CCCNC(=N)N)NC(=O)[C@@H](C)NC(=O)[C@H](C)NC(=O)[C@H](C)NC(=O)[C@H](CC(C)C)NC(=O)[C@@H]2CCCN2C1=O |  |  |  | > 100000 |  | 
4 | CC(=O)N[C@@H](Cc1ccccc1)C(=O)N[C@@H](CCCCN)C(=O)N1CCC[C@H]1C(=O)N[C@@H](CC(C)C)C(=O)N[C@@H](C)C(=O)N[C@@H](C)C(=O)N[C@H](C)C(=O)N[C@@H](CCCNC(=N)N)C(=O)O (Ac-FKPLAA[dA]R-OH) |  |  |  |  | 22.9 | inactive
5 | CC(C)C[C@H](NC(=O)[C@@H]1CCCN1C(=O)[C@H](C)NC(=O)[C@@H]1CCCN1C(=O)[C@H](CCCCN)NC(=O)[C@@H](N)Cc1ccccc1)C(=O)N[C@H](C)C(=O)N[C@@H](CCCNC(=N)N)C(=O)O | 11 | 44.4 | 0.25 |  |  | 
6 | CC(C)C[C@H](NC(=O)[C@@H]1CCCN1C(=O)[C@H](CCCCN)NC(=O)[C@@H](N)Cc1ccccc1)C(=O)N[C@@H](C)C(=O)N[C@@H](C)C(=O)N[C@@H](C)C(=O)N[C@@H](CCCNC(=N)N)C(=O)O | 17300 |  |  |  |  | 
7 | CC(C)C[C@H](NC(=O)[C@@H]1CCCN1C(=O)[C@H](CC(C)C)NC(=O)[C@@H]1CCCN1C(=O)[C@H](C)NC(=O)[C@@H](N)Cc1ccccc1)C(=O)N[C@H](C)C(=O)N[C@@H](CCCNC(=N)N)C(=O)O | 282 | 708 | 0.4 |  |  | 
8 | CC(C)C[C@H](NC(=O)[C@@H]1CCCN1C(=O)[C@H](CC(C)C)NC(=O)[C@@H]1CCCN1C(=O)[C@H](CCCCN)NC(=O)[C@@H](N)Cc1ccccc1)C(=O)N[C@H](C)C(=O)N[C@@H](CCCNC(=N)N)C(=O)O (H-FKPLPL[dA]R-OH) | 129 |  |  |  |  | 
9 | C[C@H](NC(=O)[C@H](C)NC(=O)[C@@H](NC(=O)[C@@H]1CCCN1C(=O)[C@H](CCCCN)NC(=O)[C@@H](N)Cc1ccccc1)[C@@H](C)O)C(=O)N[C@H](C)C(=O)N[C@@H](CCCNC(=N)N)C(=O)O | 7010 | 895 | 7.8 |  |  | 
10 | CC[C@@H](C)[C@@H](NC(=O)[C@H](C)NC(=O)[C@H](CC(C)C)NC(=O)[C@@H]1CCCN1C(=O)[C@H](CCCCN)NC(=O)[C@H](Cc1ccccc1)NC(C)=O)C(=O)N[C@@H](C)C(=O)N[C@@H](CCCNC(=N)N)C(=O)O | 429 | 1.54 | 214 |  |  | 
